Source: patent publication US20040141912A1, “Method for targeting chemical compounds to cells and pharmaceutical compositions used therein” (priority 2001, published 2004)
“Also recorded” adds a separate entry of the source.

Tests used:
Type in all cases: cell-based, human
[1] = FACS analysis of DDC uptake by control and activated platelets; conditions: DDC 5 μM, 5 min
Procedure: (§1) FIG. 6: Control and activated platelets were co-incubated with DDC (at a final concentration of 5 μM under three different conditions: no further treatment; Ca^2+-deprivation due to incubation with BAPTA and EGTA; and restoration of Ca^2+ following re-addition of Ca^2+ and calcium-ionophore A23187. Platelets were then subjected to FACS analysis.
(§2) The selective binding of DDC to activated platelets was determined using flow cytometric (FACS) analysis. Platelet rich plasma was obtained from healthy volunteers. 10^9 fresh platelets were centrifuged (5 minutes, 380×g), washed and re-suspended in Tyrode's buffer (137 mM NaCl; 2.8 mM KCl; 1 mM MgCl2, 12 mM NaHCO3; 0.4 mM Na2HPO4; 5.5 mM D-glucose and 10 mM Hepes pH 7.4; 0.35% BSA). Control platelets were kept on ice.
(§3) For activation, 200 μl of washed platelets were incubated with the calcium ionophore A23187 in the presence of 5 mM of CaCl2, at room temperature. Following incubation, platelets were centrifuged (2 min., 10^4 rpm) and re-suspended in 1 ml of Tyrode's buffer. Activated platelets were subsequently incubated with 5 μM of DDC for 5 minutes at room temperature, under three different conditions: (i). without any further treatment; (ii). under conditions of Ca^2+-deprivation, induced by 20 μM of BAPTA and 1 mM of EGTA (for 30 min. at 4° C.); (iii). upon restoration of Ca^2+, wherein platelet intracellular Ca^2+ levels were replenished by addition of 1 mM of CaCl2 and 2 μM of the calcium ionophore A23187. Non-activated platelets served as control. Platelets were subjected to flow cytometric (FACS) analysis using Becton-Dickinson cell sorter and CellQuest software. Excitation was at 360 nm and emission was measured at 530 nm.

activated platelets = assay: as above
Procedure: as §1, §2, §3

Jurkat cells = assay: FACS analysis of DDC uptake by Jurkat cells induced to undergo apoptosis by staurosporine
Procedure: FIG. 8: Jurkat cells were induced to undergo apoptosis by treatment with staurosporine. Subsequently, these cells were treated with DDC. The relative change in DDC uptake by cells in early versus late stages of apoptosis, following induction and inhibition of the PLS system is presented. Shown are the percents of positive early or late apoptotic events (mean values), calculated from 3 independent experiments, and wherein the events (either early or late) observed in apoptotic culture are regarded as 100%. Selective accumulation of DDC in early, but not in late apoptotic cells was detected as a result of staurosporine treatment. Ca^2+-deprivation or rottlerin treatment were performed as described in FIG. 1.
The selective uptake of DDC by apoptotic cells is not dependent upon the type of apoptotic trigger. […] Staurosporine acts in an apoptotic pathway which is largely distinct from that of anti-Fas Ab. Jurkat cells were grown as described in Example 1, and were subsequently treated for 4 hours with 1 μM of staurosporine (S4400; Sigma, USA). After induction of apoptosis, cells were treated with DDC (250 μM) for 5 minutes, and were then co-stained with PI and subjected to FACS analysis. Non-treated cells served as control.

Q: For CN(C)c1cccc2c(S(=O)(=O)NC(CSSCC(NS(=O)(=O)c3cccc4c(N(C)C)cccc34)C(=O)O)C(=O)O)cccc12 (centres unmarked) [DDC], which “DDC uptake (fluorescence intensity), control non-activated platelets” value [1] is on record?
A: low levels of fluorescence intensity; also recorded: only minimal uptake of DDC

Q: And the “DDC uptake (fluorescence intensity), activated platelets under Ca2+-deprivation” value (activated platelets; BAPTA 20 μM + EGTA 1 mM, 30 min, 4° C.)?
A: markedly reduced DDC uptake; also recorded: uptake of DDC was inhibited

Q: What about the “DDC uptake (fluorescence intensity), activated platelets upon restoration of Ca2+” value (activated platelets; CaCl2 1 mM + A23187 2 μM after deprivation) of the same compound?
A: completely restored; also recorded: fluorescence returned to the high values

Q: And the “DDC uptake (fluorescence intensity), activated platelets” value (activated platelets; activated with A23187 + 5 mM CaCl2, DDC 5 μM, 5 min)?
A: significant shift to higher fluorescence values; also recorded: marked enhancement of fluorescence as compared to controls; also recorded: marked shift to higher fluorescence levels; also recorded: marked shift to higher fluorescence intensity

Q: What about the “Positive early apoptotic events for DDC (apoptotic culture regarded as 100%)” value (Jurkat cells; control non-treated cells, mean of 3 experiments, DDC 250 μM 5 min) of the same compound?
A: 36%

Q: What about the “Positive early apoptotic events for DDC (apoptotic culture regarded as 100%)” value (Jurkat cells; staurosporine 1 μM 4 h apoptotic cells) of the same compound?
A: 100%

Q: And the “Positive early apoptotic events for DDC (apoptotic culture regarded as 100%)” value (Jurkat cells; staurosporine-treated cells, Ca2+-deprivation)?
A: 14%

Q: What about the “Positive early apoptotic events for DDC (apoptotic culture regarded as 100%)” value (Jurkat cells; staurosporine-treated cells, rottlerin treatment) of the same compound?
A: 30%
